Data published in PubChem BioAssay (NCI).
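In this assay, cells in 96-well plates receive the compound at five concentrations for 48 hours. Endpoints are linearly interpolated between the surrounding concentrations. TGI: concentration producing complete growth inhibition.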

Assays:
Assay in all cases: NCI anticancer screen, dose series, 48 h
MOLT-4 leukemia = test system: MOLT-4 leukemia
SK-MEL-2 melanoma = test system: SK-MEL-2 melanoma
HT29 colon = test system: HT29 colon
M19-MEL melanoma = test system: M19-MEL melanoma
A498 renal = test system: A498 renal
HOP-92 NSCLC = test system: HOP-92 NSCLC
CCRF-CEM leukemia = test system: CCRF-CEM leukemia
HCT-116 colon = test system: HCT-116 colon
NCI-H23 lung = test system: NCI-H23 lung
HCT-15 colon = test system: HCT-15 colon
NCI-H226 lung = test system: NCI-H226 lung
KM12 colon = test system: KM12 colon
K-562 leukemia = test system: K-562 leukemia
SW-620 colon = test system: SW-620 colon
SF-295 CNS = test system: SF-295 CNS
SN12C renal = test system: SN12C renal
OVCAR-3 ovarian = test system: OVCAR-3 ovarian
RPMI-8226 leukemia = test system: RPMI-8226 leukemia
XF 498 CNS = test system: XF 498 CNS
IGROV1 ovarian = test system: IGROV1 ovarian
OVCAR-4 ovarian = test system: OVCAR-4 ovarian
UO-31 renal = test system: UO-31 renal
TK-10 renal = test system: TK-10 renal
A549 NSCLC = test system: A549 NSCLC
NCI-H522 lung = test system: NCI-H522 lung
OVCAR-5 ovarian = test system: OVCAR-5 ovarian
COLO 205 colon = test system: COLO 205 colon
U251 CNS = test system: U251 CNS
SR leukemia = test system: SR leukemia
KM20L2 colon = test system: KM20L2 colon
SNB-19 CNS = test system: SNB-19 CNS
786-0 renal = test system: 786-0 renal
UACC-257 melanoma = test system: UACC-257 melanoma
DMS 114 small cell lung = test system: DMS 114 small cell lung
EKVX NSCLC = test system: EKVX NSCLC
DMS 273 small cell lung = test system: DMS 273 small cell lung
M14 melanoma = test system: M14 melanoma
UACC-62 melanoma = test system: UACC-62 melanoma
SF-539 CNS = test system: SF-539 CNS
LOX IMVI melanoma = test system: LOX IMVI melanoma
CAKI-1 renal = test system: CAKI-1 renal
HL-60(TB) leukemia = test system: HL-60(TB) leukemia
SK-MEL-28 melanoma = test system: SK-MEL-28 melanoma
LXFL 529 NSCLC = test system: LXFL 529 NSCLC
HOP-62 NSCLC = test system: HOP-62 NSCLC
MALME-3M melanoma = test system: MALME-3M melanoma
RXF 393 renal = test system: RXF 393 renal
OVCAR-8 ovarian = test system: OVCAR-8 ovarian
SF-268 CNS = test system: SF-268 CNS
SK-OV-3 ovarian = test system: SK-OV-3 ovarian
NCI-H460 lung = test system: NCI-H460 lung
SNB-78 CNS = test system: SNB-78 CNS
ACHN renal = test system: ACHN renal
HCC-2998 colon = test system: HCC-2998 colon
DLD-1 colon = test system: DLD-1 colon
SNB-75 CNS = test system: SNB-75 CNS

CC12C=C[C@]3(CC[C@@H]4[C@@](C)(CO)CCC[C@]4(C)C3CC1)C2 (some centres not stated)
TGI (MOLT-4 leukemia): > 60.4 µM
TGI (SK-MEL-2 melanoma): 43.2 µM
TGI (HT29 colon): 32.2 µM
TGI (M19-MEL melanoma): 35.7 µM
TGI (A498 renal): 37.7 µM
TGI (HOP-92 NSCLC): > 65 µM
TGI (CCRF-CEM leukemia): 46.9 µM
TGI (HCT-116 colon): 31.9 µM
TGI (NCI-H23 lung): 33.4 µM
TGI (HCT-15 colon): 31.1 µM
TGI (NCI-H226 lung): 14.4 µM
TGI (KM12 colon): > 64 µM
TGI (K-562 leukemia): 37.5 µM
TGI (SW-620 colon): 33.8 µM
TGI (SF-295 CNS): 34.1 µM
TGI (SN12C renal): 34.4 µM
TGI (OVCAR-3 ovarian): 33.2 µM
TGI (RPMI-8226 leukemia): 41.6 µM
TGI (XF 498 CNS): 35.3 µM
TGI (IGROV1 ovarian): 33 µM
TGI (OVCAR-4 ovarian): 26.7 µM
TGI (UO-31 renal): 32.2 µM
TGI (TK-10 renal): 34.7 µM
TGI (A549 NSCLC): 36.7 µM
TGI (NCI-H522 lung): 16.6 µM
TGI (OVCAR-5 ovarian): 10.6 µM
TGI (COLO 205 colon): 30.6 µM
TGI (U251 CNS): 30.9 µM
TGI (SR leukemia): 37 µM
TGI (KM20L2 colon): 1.68 µM
TGI (SNB-19 CNS): 36.2 µM
TGI (786-0 renal): 30 µM
TGI (UACC-257 melanoma): 33.6 µM
TGI (DMS 114 small cell lung): 31.7 µM
TGI (EKVX NSCLC): > 55.8 µM
TGI (DMS 273 small cell lung): 29.6 µM
TGI (M14 melanoma): 29.9 µM
TGI (UACC-62 melanoma): 29.3 µM
TGI (SF-539 CNS): 30.5 µM
TGI (LOX IMVI melanoma): 30.7 µM
TGI (CAKI-1 renal): 26.2 µM
TGI (HL-60(TB) leukemia): 36.8 µM
TGI (SK-MEL-28 melanoma): 35.6 µM
TGI (LXFL 529 NSCLC): 30.8 µM
TGI (HOP-62 NSCLC): 19.9 µM
TGI (MALME-3M melanoma): 47.6 µM
TGI (RXF 393 renal): 27.3 µM
TGI (OVCAR-8 ovarian): 41.2 µM
TGI (SF-268 CNS): 35.4 µM
TGI (SK-OV-3 ovarian): 33.2 µM
TGI (NCI-H460 lung): 40.1 µM
TGI (SNB-78 CNS): 36.7 µM
TGI (ACHN renal): 32 µM

O=C1c2ccccc2C(=O)c2c1ccc(O)c2O
TGI (MOLT-4 leukemia): > 100 µM
TGI (SK-MEL-2 melanoma): > 100 µM
TGI (HT29 colon): > 100 µM
TGI (M19-MEL melanoma): > 100 µM
TGI (A498 renal): > 100 µM
TGI (HOP-92 NSCLC): > 100 µM
TGI (HCC-2998 colon): > 100 µM
TGI (CCRF-CEM leukemia): > 100 µM
TGI (HCT-116 colon): > 100 µM
TGI (NCI-H23 lung): > 100 µM
TGI (HCT-15 colon): > 100 µM
TGI (NCI-H226 lung): > 100 µM
TGI (KM12 colon): > 100 µM
TGI (K-562 leukemia): > 100 µM
TGI (SW-620 colon): > 100 µM
TGI (SF-295 CNS): > 100 µM
TGI (SN12C renal): > 100 µM
TGI (OVCAR-3 ovarian): > 100 µM
TGI (RPMI-8226 leukemia): > 100 µM
TGI (XF 498 CNS): > 100 µM
TGI (IGROV1 ovarian): > 100 µM
TGI (OVCAR-4 ovarian): > 100 µM
TGI (UO-31 renal): > 100 µM
TGI (TK-10 renal): > 100 µM
TGI (NCI-H522 lung): > 100 µM
TGI (OVCAR-5 ovarian): > 100 µM
TGI (COLO 205 colon): > 100 µM
TGI (U251 CNS): > 100 µM
TGI (SR leukemia): > 100 µM
TGI (SNB-19 CNS): > 100 µM
TGI (DLD-1 colon): > 100 µM
TGI (786-0 renal): > 100 µM
TGI (UACC-257 melanoma): > 100 µM
TGI (EKVX NSCLC): > 100 µM
TGI (DMS 273 small cell lung): > 100 µM
TGI (M14 melanoma): > 100 µM
TGI (UACC-62 melanoma): 55.3 µM
TGI (SF-539 CNS): > 100 µM
TGI (LOX IMVI melanoma): > 100 µM
TGI (CAKI-1 renal): > 100 µM
TGI (SK-MEL-28 melanoma): > 100 µM
TGI (LXFL 529 NSCLC): > 100 µM
TGI (HOP-62 NSCLC): > 100 µM
TGI (RXF 393 renal): 88.7 µM
TGI (OVCAR-8 ovarian): > 100 µM
TGI (SF-268 CNS): > 100 µM
TGI (NCI-H460 lung): > 100 µM
TGI (SNB-75 CNS): 69.2 µM
TGI (ACHN renal): > 100 µM
